Experimental findings from PubChem BioAssay (NCI) are described below.

Some test systems named below: TK-10 renal; SK-MEL-5 melanoma; SF-268 CNS; T-47D breast; MALME-3M melanoma; OVCAR-5 ovarian; MCF7 breast; SK-MEL-2 melanoma; HCT-116 colon; SNB-75 CNS.
What all share (assay): NCI anticancer screen, dose series, 48 h

Structures are written as SMILES.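 How tested: cells in 96-well plates exposed to compound for 48 hours at five concentrations. GI50 marks 50% less growth. TGI is the concentration that stops growth completely.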

`COc1cc(/C=C/c2cc(/C=C/c3ccc(O)c(OC)c3)n(C(=O)c3ccc(Cl)cc3)n2)ccc1O`: the GI50 in the test on TK-10 renal is 4.2 µM; with SK-MEL-5 melanoma, 2.27 µM; with SF-268 CNS, 2.65 µM; with T-47D breast it was 1.92 µM; in the test with MALME-3M melanoma it was 1.31 µM; with OVCAR-5 ovarian it was 3.66 µM. For the same compound, the GI50 with MCF7 breast was 2.43 µM; in the test with SK-MEL-2 melanoma it was 1.92 µM; in the test with HCT-116 colon, 2.15 µM; in the test with SNB-75 CNS, 1.99 µM. For the same compound, the TGI in the test on TK-10 renal turned out to be 14.7 µM; with SK-MEL-5 melanoma it was 11.6 µM; with SF-268 CNS, 13.6 µM; in the test with T-47D breast, 5.86 µM; in the test with MALME-3M melanoma, 10.1 µM; in the test with OVCAR-5 ovarian it was 18.2 µM. The TGI is 16 µM in the test with MCF7 breast, 5.85 µM in the test on SK-MEL-2 melanoma, 47.9 µM in the test with HCT-116 colon and 10.3 µM in the test with SNB-75 CNS.

In the case of `C/C=C(\C)c1cc(=O)c2c(C)cc3c(c2o1)C(=O)c1c(O)c(C2CC(C)(N(C)C)C(OC(C)=O)C(C)O2)cc(C2CC(N(C)C)C(O)C(C)O2)c1C3=O` (centres undefined), the TGI was greater than 30 µM in the test with TK-10 renal; 1.59 µM in the test on SK-MEL-5 melanoma; 9.56 µM in the test on SF-268 CNS; 38.2 µM with T-47D breast; 1.13 µM with MALME-3M melanoma; 15.5 µM in the test with OVCAR-5 ovarian. Also, the TGI was 7.85 µM in the test on MCF7 breast, 2.87 µM in the test with SK-MEL-2 melanoma, 6.33 µM in the test on HCT-116 colon and 7.33 µM with SNB-75 CNS.

As to `CCc1ccc(Oc2c(-c3ccc(OCc4ccc(Cl)cc4)cc3O)n[nH]c2C(F)(F)F)cc1`, the GI50 in the test on TK-10 renal is 2 µM; in the test with SK-MEL-5 melanoma, 1.66 µM; in the test with SF-268 CNS it was 1.74 µM; in the test with T-47D breast, 1.71 µM; in the test with MALME-3M melanoma, 1.78 µM; with OVCAR-5 ovarian, 1.89 µM. Besides, the GI50 in the test with MCF7 breast was 2 µM; in the test with SK-MEL-2 melanoma it was 1.75 µM; with HCT-116 colon, 1.67 µM; in the test with SNB-75 CNS, 1.48 µM. Further, the TGI with TK-10 renal is 4.75 µM; in the test with SK-MEL-5 melanoma, 3.03 µM; in the test on SF-268 CNS, 3.39 µM; in the test with T-47D breast it was 4.25 µM; in the test on MALME-3M melanoma it was 3.47 µM; with OVCAR-5 ovarian it was 3.95 µM. For the same compound, the TGI in the test on MCF7 breast worked out at 5.65 µM; in the test with SK-MEL-2 melanoma, 3.74 µM; in the test on HCT-116 colon it was 3.19 µM; with SNB-75 CNS, 5.8 µM.

Take `Cc1nc([N+](=O)[O-])cn1-c1nc2ccccn2c1[N+](=O)[O-]`: the TGI in the test on TK-10 renal, with SK-MEL-5 melanoma, with SF-268 CNS, with T-47D breast, in the test on MALME-3M melanoma and with OVCAR-5 ovarian was greater than 100 µM each time. In addition, the TGI in the test on MCF7 breast is greater than 100 µM; in the test with SK-MEL-2 melanoma, greater than 100 µM; in the test with HCT-116 colon, greater than 100 µM; with SNB-75 CNS it was 63.7 µM.

On to `CCOC(=O)C1=CCCC[C@H]1S(=O)(=O)Nc1ccc(F)cc1Cl`, for which the GI50 is 33 µM in the test on TK-10 renal; 10.5 µM with SK-MEL-5 melanoma; 24.6 µM in the test with SF-268 CNS; 16.6 µM in the test with T-47D breast; 24.4 µM with MALME-3M melanoma; 25 µM in the test on OVCAR-5 ovarian. The GI50 in the test with MCF7 breast was 19.9 µM; in the test on SK-MEL-2 melanoma, 21 µM; in the test on HCT-116 colon, 25 µM; in the test on SNB-75 CNS, 25.1 µM. Besides, the TGI with TK-10 renal was greater than 100 µM; in the test on SK-MEL-5 melanoma, 24.5 µM; in the test with SF-268 CNS it was greater than 100 µM; in the test on T-47D breast, greater than 100 µM; in the test on MALME-3M melanoma, 85.2 µM; in the test on OVCAR-5 ovarian it was 77.1 µM. Also, the TGI was greater than 100 µM in the test on MCF7 breast, 83.8 µM in the test with SK-MEL-2 melanoma, 95.3 µM in the test with HCT-116 colon and greater than 100 µM with SNB-75 CNS.

For the compound `CCc1nc(N)nc(N)c1-c1ccc(Cl)c([N+](=O)[O-])c1`, the TGI with TK-10 renal was greater than 100 µM; in the test with SK-MEL-5 melanoma, 48.8 µM; with SF-268 CNS it was greater than 100 µM; in the test with T-47D breast it was greater than 100 µM; with MALME-3M melanoma, greater than 100 µM; with OVCAR-5 ovarian, greater than 100 µM. The TGI in the test on MCF7 breast is greater than 89.7 µM; in the test with SK-MEL-2 melanoma, 90.5 µM; in the test on HCT-116 colon, greater than 100 µM; in the test with SNB-75 CNS, greater than 100 µM.

`Cc1c(-c2cnccn2)ssc1=S`: the TGI with TK-10 renal was 98.7 µM; in the test with SK-MEL-5 melanoma, greater than 100 µM; in the test on SF-268 CNS, 99 µM; in the test on T-47D breast, greater than 100 µM; in the test with MALME-3M melanoma it was greater than 100 µM; in the test with OVCAR-5 ovarian, greater than 100 µM. In addition, the TGI with MCF7 breast was greater than 100 µM; in the test on SK-MEL-2 melanoma, greater than 100 µM; with HCT-116 colon, greater than 100 µM; with SNB-75 CNS it was 59.8 µM.

For `O=C(O)CCNCC(=O)O`, the TGI in the test with TK-10 renal, with SK-MEL-5 melanoma, with SF-268 CNS, in the test on T-47D breast, in the test on MALME-3M melanoma and in the test with OVCAR-5 ovarian was greater than 100 µM each time. Further, the TGI in the test on MCF7 breast, with SK-MEL-2 melanoma, with HCT-116 colon and with SNB-75 CNS was greater than 100 µM throughout.

In the case of `COc1cc2c(cc1OC(C)C)[C@H](c1ccc(Cl)cc1)N(c1ccc(N(C)CC3CCC(N4CCN(C)C(=O)C4)CC3)cc1)C(=O)C2` (some centres undefined), the GI50 in the test with TK-10 renal was 3.63 µM; with SK-MEL-5 melanoma, 1.44 µM; in the test with SF-268 CNS it was 3.01 µM; with T-47D breast, 2.62 µM; with MALME-3M melanoma, 0.09 µM; with OVCAR-5 ovarian, 2.66 µM. The GI50 in the test on MCF7 breast is 0.271 µM; with SK-MEL-2 melanoma, 5.87 µM; in the test on HCT-116 colon, 0.447 µM; with SNB-75 CNS, 2.95 µM. Besides, the TGI in the test with TK-10 renal was 9.34 µM; with SK-MEL-5 melanoma, 2.84 µM; with SF-268 CNS it was 8.72 µM; in the test on T-47D breast, 11.8 µM; in the test with MALME-3M melanoma it was 2.74 µM; with OVCAR-5 ovarian, 9.58 µM. The TGI in the test with MCF7 breast came to 3.61 µM; with SK-MEL-2 melanoma it was 12.1 µM; in the test on HCT-116 colon it was 2.48 µM; with SNB-75 CNS, 8.68 µM.

As for `Nc1nc(/C=C\c2ccc([N+](=O)[O-])s2)nc(N2CCN(c3ccccc3)CC2)n1`, the GI50 is 72.1 µM in the test on TK-10 renal; 0.157 µM in the test with SK-MEL-5 melanoma; 27.2 µM in the test on SF-268 CNS; 14.2 µM in the test with T-47D breast; 24.9 µM with MALME-3M melanoma; 40 µM in the test with OVCAR-5 ovarian. The GI50 in the test on MCF7 breast was 14.8 µM; with SK-MEL-2 melanoma, 21.2 µM; in the test on HCT-116 colon it was 17.2 µM; in the test with SNB-75 CNS it was 33.1 µM. In addition, the TGI is greater than 100 µM in the test on TK-10 renal; 80 µM in the test on SF-268 CNS; 43.2 µM with T-47D breast; 59.8 µM in the test on MALME-3M melanoma; 98.3 µM in the test on OVCAR-5 ovarian; 49.4 µM with MCF7 breast. The figures for the TGI in the test on SK-MEL-2 melanoma, with HCT-116 colon and in the test on SNB-75 CNS were 48.5 µM, 31.5 µM and 60.5 µM, respectively.

`O=C1Nc2c(ccc(Cl)c2Cl)/C1=C/c1cc(Br)c(O)c(Br)c1`: the GI50 with TK-10 renal is 12 µM; with SK-MEL-5 melanoma, 2.6 µM; in the test with SF-268 CNS it was 14.6 µM; with T-47D breast it was 2.99 µM; in the test on MALME-3M melanoma, 2.53 µM; in the test with OVCAR-5 ovarian it was 20.6 µM. In addition, the GI50 is 3.4 µM with MCF7 breast, 5.15 µM with SK-MEL-2 melanoma, 4.45 µM in the test with HCT-116 colon and 9 µM in the test with SNB-75 CNS. In addition, the TGI was greater than 100 µM with TK-10 renal; 10.2 µM with SK-MEL-5 melanoma; greater than 100 µM in the test with SF-268 CNS; 12.3 µM with T-47D breast; 32.4 µM in the test with MALME-3M melanoma; greater than 74 µM in the test on OVCAR-5 ovarian. Moreover, the TGI in the test with MCF7 breast was greater than 71.9 µM; with SK-MEL-2 melanoma, 20.9 µM; in the test with HCT-116 colon it was greater than 44.9 µM; in the test on SNB-75 CNS, 83.2 µM.

For `CNC(=O)c1c(C)oc2cc(Oc3ncnc4cc(OC)c(OC)cc34)ccc12`, the GI50 in the test on TK-10 renal, in the test with SK-MEL-5 melanoma, in the test with SF-268 CNS, in the test on T-47D breast, with MALME-3M melanoma and with OVCAR-5 ovarian was greater than 100 µM throughout. Further, the GI50 with MCF7 breast was greater than 100 µM; with SK-MEL-2 melanoma, greater than 100 µM; in the test on HCT-116 colon, greater than 100 µM; with SNB-75 CNS, 2.35 µM. The TGI in the test on TK-10 renal, with SK-MEL-5 melanoma, in the test on SF-268 CNS, in the test on T-47D breast, in the test on MALME-3M melanoma and in the test with OVCAR-5 ovarian was greater than 100 µM throughout. The TGI in the test with MCF7 breast, in the test with SK-MEL-2 melanoma, in the test with HCT-116 colon and in the test on SNB-75 CNS was greater than 100 µM in each case.

For the compound `CN(Cc1ccccc1)Cn1ccnc1`, the TGI in the test with TK-10 renal was greater than 100 µM; in the test on SK-MEL-5 melanoma, greater than 63.4 µM; with SF-268 CNS, greater than 100 µM; with T-47D breast it was greater than 100 µM; with MALME-3M melanoma, 50.4 µM; with OVCAR-5 ovarian, greater than 100 µM. Moreover, the TGI in the test with MCF7 breast, in the test with SK-MEL-2 melanoma, in the test with HCT-116 colon and in the test on SNB-75 CNS was greater than 100 µM each time.
